In patent US20060127980A1, “Human excitatory amino acid transporter-2 gene promoter and uses thereof” (priority 2003, published 2006):

Tests used:
hEAAT2 promoter = hEAAT2 promoter luciferase assay of agents in PHFA-Im (FIG. 11); format: cell-based, human; conditions: 10 μM
Description: (§1) FIG. 11. Effect of various agents on hEAAT2 promoter activity in immortalized primary human fetal astrocytes (PHFA-Im). A: ceftriaxone; B: amoxicillin; C: chloramphenicol; D: thiamphenicol; E: vancomycin; F: glycine; G: glutamate; H: DMSO; I: dibutyryl cAMP. PHFA-Im is a human telomerase-immortalized clone of primary human fetal astrocytes. PHFA-Im cells were seeded at 5×10^4 cells/35-mm plate. Twenty-four h later cells were untreated (CON) or received the indicated compound at a final concentration of 10 μM. Forty-eight h later the cells were transfected with a FL pGL3/EAAT2 luciferase reporter construct (5 μg) plus a pSVβGalactosidase construct (1 μg) using the calcium phosphate precipitation method (Su et al. 2003, Proc. Natl. Acad. Sci. USA 100:1955-1960). After an additional 48 h, cell lysates were prepared and luciferase activity was determined using the Luciferase Assay System Kit (Promega, E1501) and luminescence determined using a luminometer (Turner Designs, TD20/20) (Su et al. 2003, Proc. Natl. Acad. Sci. USA 100:1955-1960). Data presented are the average of 3 independent plates±S.D. Qualitatively similar results were obtained in 2 additional experiments.
as §1, with “The effects” for “FIG. 11. Effect”, “these same” for “various”, “also were examined” for “on hEAAT2 promoter activity”, “two other cell lines to confirm the generality of the findings. […] PHFA-Im is a cell line developed from a clonal isolate of a” for “immortalized”, “astrocyte immortalized by transformation with the reverse transcriptase subunit of” for “astrocytes (PHFA-Im). A: ceftriaxone; B: amoxicillin; C: chloramphenicol; D: thiamphenicol; E: vancomycin; F: glycine; G: glutamate; H: DMSO; I: dibutyryl cAMP. PHFA-Im is a”, “telomerase.” for “telomerase-immortalized clone of primary human fetal astrocytes.”

hEAAT2 mRNA = test: Northern blot of hEAAT2 mRNA in PHFA treated with modulators; format: cell-based, human; conditions: 7-day treatment, EGF 30 ng/ml, TGF-α 30 ng/ml, dbcAMP 200 μM, bromo-cAMP 100 μM, TNF-α 200 U/ml
Description: FIG. 4A-D. Effect of modulators of hEAAT2 activity on hEAAT2 expression and hEAAT2 promoter activity in PHFA. A. A Northern analysis of hEAAT2 and GAPDH mRNA expression following treatment with EGF (30 ng/ml), TGF-α (30 ng/ml), dbcAMP (200 μM, bromo-cAMP (100 μM) or TNF-α (200 U/ml) for 7 days. B. Nuclear run-on assays determining the relative rates of hEAAT2 and GAPDH transcription as a function of 7-day treatment with the same concentrations of the indicated agents. C. A time course of mRNA expression of hEAAT2 and GAPDH following treatment with EGF, bromo-cAMP or TNF-α (same concentrations as in A.). D. Fold luciferase activity in PHFA transfected with flhEAAT2Prom-luc or various deletion mutants of hEAAT2 and non-transfected controls treated with the indicated compounds for four days.
Northern and Western Blotting Assays. Total cellular RNA was isolated by the guanidinium/phenol extraction method and Northern blotting was performed as described (Huang et al., 2001, Oncogene 20(48):7051-7063; Su et al., 2000, Oncogene 19(30):3411-3421; Su et al., 2001, Nucleic Acids Res 29(8):1661-1671). Western blotting assays were performed as described (Su et al., 1998, Proc Natl Acad Sci USA 95(24):14400-14405; Su et al., 2002, Oncogene 21(22):3592-602).
Positive and Negative Regulation of hEAAT2 Transcription, Promoter Activity and mRNA Levels in PHFA. Several enhancers of GLT-1 expression in rat astrocytes have been identified, including epidermal growth factor (EGF), transforming growth factor-α (TGF-α) and dibutyryl cyclic AMP (dbcAMP) (Swanson et al., 1997, J Neurosci 17(3):932-940; Zelenaia et al., 2000, Mol Pharmacol 57(4):667-678). Based on these considerations, experiments were performed to determine if these agents similarly modify human hEAAT2 expression in PHFA. Consistent with previous observations in rat astrocytes, 7-day treatment with EGF, TGF-α, and two analogs of cAMP, dbcAMP and bromo-cAMP, stimulated hEAAT2 mRNA expression in PHFA, whereas TNF-α decreased expression (FIG. 4B). […] In contrast, TNF-α decreased expression by 48 h (FIG. 4C).

CCCC(=O)Nc1ncnc2c1ncn2[C@@H]1O[C@@H]2COP(=O)(O)O[C@H]2[C@H]1OC(=O)CCC [dbcAMP, dibutyryl cyclic AMP]
hEAAT2 promoter activity (hEAAT2 promoter): potent stimulators
hEAAT2 mRNA expression (hEAAT2 mRNA): stimulated
